In assay [1] the target is TRAF2 and NCK-interacting protein kinase (Homo sapiens) (UniProt Q9UKE5). As to the kind of experiment: Inhibition of TNIK (unknown origin) at 1 uM by Ambit Kinomescan binding assay relative to control.
For assay [2], the target named is Receptor tyrosine-protein kinase erbB-3 (Homo sapiens) (UniProt P21860). Briefly: Inhibition of HER3/ErbB3 Lys1 labeling site in human A-375 cells at 5 uM by KiNativ Profiling analysis relative to control. It is filed as cell-based.
The target of assay [3] is RAF proto-oncogene serine/threonine-protein kinase (Homo sapiens, UniProt P04049). As to the kind of experiment: Inhibition of RAF1 (unknown origin) Lys2 labeling site by KiNativ Profiling analysis.
Chain of RAF proto-oncogene serine/threonine-protein kinase (P04049 whole entry): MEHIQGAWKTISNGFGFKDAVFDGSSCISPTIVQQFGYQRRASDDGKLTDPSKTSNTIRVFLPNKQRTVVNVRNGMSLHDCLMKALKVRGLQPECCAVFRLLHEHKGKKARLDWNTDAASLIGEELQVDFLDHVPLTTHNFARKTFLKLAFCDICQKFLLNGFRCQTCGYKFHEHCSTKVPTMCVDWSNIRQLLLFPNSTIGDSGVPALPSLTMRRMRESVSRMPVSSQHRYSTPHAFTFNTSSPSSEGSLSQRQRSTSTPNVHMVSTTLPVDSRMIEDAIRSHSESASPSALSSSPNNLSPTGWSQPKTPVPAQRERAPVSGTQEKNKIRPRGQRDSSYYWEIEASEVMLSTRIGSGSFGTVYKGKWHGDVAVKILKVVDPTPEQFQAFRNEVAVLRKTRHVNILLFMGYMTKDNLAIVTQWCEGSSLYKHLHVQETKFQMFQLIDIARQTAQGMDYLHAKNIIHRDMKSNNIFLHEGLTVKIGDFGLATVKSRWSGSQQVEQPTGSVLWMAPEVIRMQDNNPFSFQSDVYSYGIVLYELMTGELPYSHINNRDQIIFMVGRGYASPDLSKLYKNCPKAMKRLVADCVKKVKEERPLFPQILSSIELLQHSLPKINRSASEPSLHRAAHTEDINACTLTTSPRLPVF
The target in assay [4] is Membrane-associated tyrosine- and threonine-specific cdc2-inhibitory kinase (Homo sapiens) (UniProt Q99640). Briefly: Inhibition of PKMYT1 (unknown origin) at 10 uM by Ambit Kinomescan binding assay.
For assay [5], the target named is Cyclin-dependent kinase 2 (Homo sapiens) (UniProt P24941). Briefly: Inhibition of CDK2 (unknown origin) at 10 uM by Ambit Kinomescan binding assay relative to control.
The nature of assay [6]: Inhibition of […] ATP labeling site in human Huh-7 cells at 10 uM by KiNativ Profiling analysis relative to control. Conditions: condition cancer.
Assay [7] deals with Tyrosine-protein kinase Blk (Homo sapiens) (UniProt P51451). Briefly: Inhibition of BLK (unknown origin) at 10 uM by Ambit Kinomescan binding assay relative to control.
Chain of Tyrosine-protein kinase Blk (Homo sapiens) (P51451 2-505 limits assumed): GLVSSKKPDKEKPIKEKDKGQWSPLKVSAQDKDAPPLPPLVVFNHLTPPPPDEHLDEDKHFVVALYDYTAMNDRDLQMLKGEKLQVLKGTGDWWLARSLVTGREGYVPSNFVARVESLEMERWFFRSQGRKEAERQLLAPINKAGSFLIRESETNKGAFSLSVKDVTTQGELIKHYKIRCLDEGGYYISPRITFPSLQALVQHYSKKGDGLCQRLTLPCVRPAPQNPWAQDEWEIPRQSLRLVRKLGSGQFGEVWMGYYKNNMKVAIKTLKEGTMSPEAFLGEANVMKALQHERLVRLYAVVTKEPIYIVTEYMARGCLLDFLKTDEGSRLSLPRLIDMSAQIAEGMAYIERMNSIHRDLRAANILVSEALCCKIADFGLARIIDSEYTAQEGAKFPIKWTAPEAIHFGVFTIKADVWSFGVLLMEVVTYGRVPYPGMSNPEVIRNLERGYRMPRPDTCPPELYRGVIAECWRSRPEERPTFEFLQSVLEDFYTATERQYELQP
The target in assay [8] is Serine/threonine-protein kinase Nek6 (Homo sapiens) (UniProt Q9HC98). As to the kind of experiment: Inhibition of NEK6 ACT labeling site in human Huh-7 cells at 10 uM by KiNativ Profiling analysis relative to control. Type of assay: cell-based.
In assay [9] the target is T1, Serine/threonine-protein kinase TBK1 (Homo sapiens) (UniProt Q9UHD2).
T1 sequence (whole entry): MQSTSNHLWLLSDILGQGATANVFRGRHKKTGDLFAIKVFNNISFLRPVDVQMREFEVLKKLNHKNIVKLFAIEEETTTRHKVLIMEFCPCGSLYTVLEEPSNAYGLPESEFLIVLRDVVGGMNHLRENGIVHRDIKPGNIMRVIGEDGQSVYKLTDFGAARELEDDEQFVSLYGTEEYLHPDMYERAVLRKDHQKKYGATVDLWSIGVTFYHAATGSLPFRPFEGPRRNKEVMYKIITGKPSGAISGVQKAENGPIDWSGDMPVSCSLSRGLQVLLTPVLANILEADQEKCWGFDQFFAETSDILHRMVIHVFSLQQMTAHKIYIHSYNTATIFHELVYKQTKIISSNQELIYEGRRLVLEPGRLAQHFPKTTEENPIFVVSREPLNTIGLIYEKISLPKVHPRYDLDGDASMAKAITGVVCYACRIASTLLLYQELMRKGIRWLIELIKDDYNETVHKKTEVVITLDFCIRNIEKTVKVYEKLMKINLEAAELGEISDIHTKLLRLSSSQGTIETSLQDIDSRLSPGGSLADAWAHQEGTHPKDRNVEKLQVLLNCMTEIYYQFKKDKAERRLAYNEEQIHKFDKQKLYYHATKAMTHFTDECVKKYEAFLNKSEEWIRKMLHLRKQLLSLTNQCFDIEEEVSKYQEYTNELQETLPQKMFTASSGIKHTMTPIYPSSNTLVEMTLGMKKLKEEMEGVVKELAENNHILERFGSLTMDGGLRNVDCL
Briefly: Inhibition of TBK1 Lys1 labeling site in human Huh-7 cell lysate at 1 uM by KiNativ Profiling analysis relative to control. Type of assay: subcellular.

Assay [10] has as its target T2, Acylglycerol kinase, mitochondrial (Homo sapiens) (UniProt Q53H12).
T2 sequence (whole entry): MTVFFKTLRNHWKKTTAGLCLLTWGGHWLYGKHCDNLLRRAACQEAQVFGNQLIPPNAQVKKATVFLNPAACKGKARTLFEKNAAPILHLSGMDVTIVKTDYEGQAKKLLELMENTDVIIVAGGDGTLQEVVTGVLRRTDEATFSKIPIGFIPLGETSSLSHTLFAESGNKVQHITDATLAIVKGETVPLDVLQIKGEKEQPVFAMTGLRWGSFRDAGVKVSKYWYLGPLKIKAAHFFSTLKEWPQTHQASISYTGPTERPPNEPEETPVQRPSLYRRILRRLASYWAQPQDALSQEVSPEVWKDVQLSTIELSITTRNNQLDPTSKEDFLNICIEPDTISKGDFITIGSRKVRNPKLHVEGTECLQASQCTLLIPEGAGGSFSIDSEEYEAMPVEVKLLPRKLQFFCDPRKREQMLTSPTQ
Briefly: Inhibition of AGK ATP labeling site in human Huh-7 cell lysate at 1 uM by KiNativ Profiling analysis relative to control. It is filed as subcellular.

The target of assay [11] is Mitogen-activated protein kinase kinase kinase kinase 4 (Homo sapiens, UniProt O95819). As to the kind of experiment: Inhibition of ZC1/HGK Lys1 labeling site in human Huh-7 cell lysate at 1 uM by KiNativ Profiling analysis relative to control. It is filed as subcellular.
Chain of Mitogen-activated protein kinase kinase kinase kinase 4 (O95819 2-1239 limits assumed): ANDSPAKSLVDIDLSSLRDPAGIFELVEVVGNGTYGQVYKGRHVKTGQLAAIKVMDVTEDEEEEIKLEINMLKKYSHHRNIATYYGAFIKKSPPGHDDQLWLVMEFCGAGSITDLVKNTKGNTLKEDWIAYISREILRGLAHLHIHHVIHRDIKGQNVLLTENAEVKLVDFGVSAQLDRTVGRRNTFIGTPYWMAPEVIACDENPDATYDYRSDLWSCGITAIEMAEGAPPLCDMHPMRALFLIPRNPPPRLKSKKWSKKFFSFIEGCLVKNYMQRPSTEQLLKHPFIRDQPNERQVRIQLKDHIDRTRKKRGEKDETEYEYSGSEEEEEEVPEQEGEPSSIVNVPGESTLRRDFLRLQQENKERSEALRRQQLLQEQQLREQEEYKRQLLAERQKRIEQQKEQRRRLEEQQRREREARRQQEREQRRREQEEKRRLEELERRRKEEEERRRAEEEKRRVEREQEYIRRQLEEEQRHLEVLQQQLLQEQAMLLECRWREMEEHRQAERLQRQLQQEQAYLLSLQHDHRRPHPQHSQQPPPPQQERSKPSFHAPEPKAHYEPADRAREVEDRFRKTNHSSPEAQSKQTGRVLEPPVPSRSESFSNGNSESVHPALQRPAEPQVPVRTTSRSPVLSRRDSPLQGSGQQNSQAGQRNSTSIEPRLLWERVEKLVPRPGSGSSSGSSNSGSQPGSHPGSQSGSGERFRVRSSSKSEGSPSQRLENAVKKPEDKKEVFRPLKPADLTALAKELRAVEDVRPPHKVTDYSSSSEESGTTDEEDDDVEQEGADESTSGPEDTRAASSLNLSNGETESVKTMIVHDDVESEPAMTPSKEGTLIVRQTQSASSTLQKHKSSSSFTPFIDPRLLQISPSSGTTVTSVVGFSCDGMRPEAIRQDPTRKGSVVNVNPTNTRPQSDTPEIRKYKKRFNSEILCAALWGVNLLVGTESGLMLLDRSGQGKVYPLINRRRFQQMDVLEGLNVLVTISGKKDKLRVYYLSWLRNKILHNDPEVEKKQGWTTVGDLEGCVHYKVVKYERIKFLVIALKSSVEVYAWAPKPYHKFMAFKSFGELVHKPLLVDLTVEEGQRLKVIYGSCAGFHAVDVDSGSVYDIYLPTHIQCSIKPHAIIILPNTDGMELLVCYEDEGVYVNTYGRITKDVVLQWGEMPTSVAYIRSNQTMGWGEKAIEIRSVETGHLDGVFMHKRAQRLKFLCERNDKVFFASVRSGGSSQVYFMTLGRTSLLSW
For assay [12], the target named is T3, Aurora kinase A (Homo sapiens) (UniProt O14965).
T3 sequence (whole entry): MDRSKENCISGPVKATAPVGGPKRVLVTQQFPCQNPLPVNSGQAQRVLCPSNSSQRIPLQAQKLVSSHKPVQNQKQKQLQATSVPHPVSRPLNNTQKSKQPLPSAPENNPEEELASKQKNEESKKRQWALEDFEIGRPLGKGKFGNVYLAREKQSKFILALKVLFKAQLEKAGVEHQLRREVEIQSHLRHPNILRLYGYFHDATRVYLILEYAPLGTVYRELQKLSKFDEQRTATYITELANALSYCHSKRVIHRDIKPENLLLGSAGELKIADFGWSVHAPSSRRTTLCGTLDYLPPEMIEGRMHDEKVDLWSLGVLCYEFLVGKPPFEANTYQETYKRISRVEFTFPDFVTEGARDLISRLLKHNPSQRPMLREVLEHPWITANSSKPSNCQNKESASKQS
As to the kind of experiment: Inhibition of AurA Lys2 labeling site in human Huh-7 cell lysate at 1 uM by KiNativ Profiling analysis relative to control. It is filed as subcellular.

Inhibition and IC50 data for three compounds are collected here from ChEMBL document CHEMBL5696442, “Discovery of type II inhibitors of TGFβ-activated kinase 1 (TAK1) and mitogen-activated protein kinase kinase kinase kinase 2 (MAP4K2)” (J Med Chem, 2015).

What is called inhibition is the change of the read-out against control, counted positive when it falls. What is called IC50 is the midpoint of a concentration-inhibition curve. Read a low IC50 as greater potency.

Active and inactive are the calls of the source. No cut-off for these calls is given here.

Chain of TRAF2 and NCK-interacting protein kinase (Homo sapiens) (Q9UKE5 whole entry, looked up): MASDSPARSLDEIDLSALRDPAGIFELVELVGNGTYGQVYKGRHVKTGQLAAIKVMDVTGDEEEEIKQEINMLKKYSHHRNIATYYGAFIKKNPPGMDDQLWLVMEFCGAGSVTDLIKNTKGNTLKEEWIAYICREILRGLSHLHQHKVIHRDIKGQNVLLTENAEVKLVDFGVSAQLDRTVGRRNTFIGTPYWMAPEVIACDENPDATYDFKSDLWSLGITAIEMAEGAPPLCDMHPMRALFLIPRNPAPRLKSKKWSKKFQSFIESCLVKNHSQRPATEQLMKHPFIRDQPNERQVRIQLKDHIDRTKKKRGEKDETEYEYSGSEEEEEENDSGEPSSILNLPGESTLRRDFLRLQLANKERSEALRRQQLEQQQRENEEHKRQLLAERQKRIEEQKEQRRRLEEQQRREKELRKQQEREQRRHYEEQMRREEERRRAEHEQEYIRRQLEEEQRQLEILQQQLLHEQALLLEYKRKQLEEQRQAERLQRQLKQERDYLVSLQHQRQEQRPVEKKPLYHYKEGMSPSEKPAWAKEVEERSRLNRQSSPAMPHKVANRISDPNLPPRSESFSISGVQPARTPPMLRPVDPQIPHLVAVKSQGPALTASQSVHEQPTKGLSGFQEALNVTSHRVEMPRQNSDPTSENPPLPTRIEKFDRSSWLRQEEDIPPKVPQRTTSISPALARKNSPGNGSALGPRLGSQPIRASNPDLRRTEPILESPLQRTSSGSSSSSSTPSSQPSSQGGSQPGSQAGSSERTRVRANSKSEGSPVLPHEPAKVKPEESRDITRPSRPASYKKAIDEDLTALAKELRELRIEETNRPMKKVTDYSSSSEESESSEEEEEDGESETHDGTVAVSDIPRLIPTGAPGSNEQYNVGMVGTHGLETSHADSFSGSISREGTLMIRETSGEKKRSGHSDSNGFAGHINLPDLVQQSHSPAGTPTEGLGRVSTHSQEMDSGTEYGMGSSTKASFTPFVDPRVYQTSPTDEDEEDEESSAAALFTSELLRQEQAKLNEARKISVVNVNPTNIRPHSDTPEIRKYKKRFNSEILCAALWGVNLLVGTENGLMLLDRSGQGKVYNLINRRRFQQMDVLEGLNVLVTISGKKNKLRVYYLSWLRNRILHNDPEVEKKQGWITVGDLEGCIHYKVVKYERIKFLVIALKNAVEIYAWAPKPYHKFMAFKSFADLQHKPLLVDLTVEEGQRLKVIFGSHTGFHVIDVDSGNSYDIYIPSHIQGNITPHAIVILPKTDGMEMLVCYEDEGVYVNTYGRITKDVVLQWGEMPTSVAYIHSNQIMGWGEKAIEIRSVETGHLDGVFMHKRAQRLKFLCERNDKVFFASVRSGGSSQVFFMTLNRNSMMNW
Chain of Receptor tyrosine-protein kinase erbB-3 (Homo sapiens) (P21860 whole entry): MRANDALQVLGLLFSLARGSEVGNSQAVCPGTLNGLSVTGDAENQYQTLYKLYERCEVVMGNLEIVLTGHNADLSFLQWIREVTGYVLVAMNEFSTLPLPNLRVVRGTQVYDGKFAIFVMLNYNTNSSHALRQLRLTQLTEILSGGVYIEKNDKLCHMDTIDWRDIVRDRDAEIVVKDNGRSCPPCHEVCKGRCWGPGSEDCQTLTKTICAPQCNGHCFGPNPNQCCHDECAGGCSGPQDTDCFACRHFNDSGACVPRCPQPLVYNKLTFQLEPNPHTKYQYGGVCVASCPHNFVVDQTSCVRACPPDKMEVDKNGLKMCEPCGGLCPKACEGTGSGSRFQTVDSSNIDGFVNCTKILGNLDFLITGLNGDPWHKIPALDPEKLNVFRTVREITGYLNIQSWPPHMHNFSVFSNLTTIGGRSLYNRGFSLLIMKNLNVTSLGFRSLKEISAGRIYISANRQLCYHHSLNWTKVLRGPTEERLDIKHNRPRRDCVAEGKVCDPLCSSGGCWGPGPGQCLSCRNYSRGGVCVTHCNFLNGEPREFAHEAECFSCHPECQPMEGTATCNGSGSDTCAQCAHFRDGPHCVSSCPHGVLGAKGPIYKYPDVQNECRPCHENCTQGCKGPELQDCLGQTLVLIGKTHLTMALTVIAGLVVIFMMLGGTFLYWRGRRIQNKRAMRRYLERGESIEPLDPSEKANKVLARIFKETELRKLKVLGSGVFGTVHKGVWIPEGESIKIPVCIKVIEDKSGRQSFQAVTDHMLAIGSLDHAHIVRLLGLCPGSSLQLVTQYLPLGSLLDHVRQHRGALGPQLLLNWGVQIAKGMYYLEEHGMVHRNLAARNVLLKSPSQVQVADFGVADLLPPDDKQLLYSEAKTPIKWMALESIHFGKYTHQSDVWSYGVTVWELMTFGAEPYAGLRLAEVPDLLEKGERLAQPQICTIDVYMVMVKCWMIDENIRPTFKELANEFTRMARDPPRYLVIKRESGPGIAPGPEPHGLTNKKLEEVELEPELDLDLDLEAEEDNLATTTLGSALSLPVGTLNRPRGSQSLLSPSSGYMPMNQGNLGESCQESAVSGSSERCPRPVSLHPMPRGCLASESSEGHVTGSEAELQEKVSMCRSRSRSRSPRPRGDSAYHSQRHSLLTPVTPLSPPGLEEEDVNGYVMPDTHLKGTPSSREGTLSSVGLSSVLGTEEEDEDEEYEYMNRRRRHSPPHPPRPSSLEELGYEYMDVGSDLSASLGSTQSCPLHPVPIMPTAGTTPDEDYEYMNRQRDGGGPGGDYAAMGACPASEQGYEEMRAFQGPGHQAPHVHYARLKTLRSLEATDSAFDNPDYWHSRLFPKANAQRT

As to `CCN1CCN(Cc2ccc(NC(=O)c3ccc(C)c(/C=C/c4cnc5[nH]ccc5c4OC)c3)cc2C(F)(F)F)CC1`, the inhibition is 14% in assay [1] and -6.6% in assay [2]. Inhibition in assay [3] was half-maximal at 3.31 µM (IC50).

Take `CCN1CCN(Cc2ccc(NC(=O)c3ccc(C)c(Oc4ccnc5[nH]ccc45)c3)cc2C(F)(F)F)CC1`: the inhibition entry in assay [4] is “inactive”. In addition, the inhibition in [5] was 11%; in [7] it was 0.45%; in assay [8] it was -3%. The inhibition at 10 µM in assay [6] is -5.1%.

For `CNc1cc(Oc2cc(C(=O)Nc3cc(N4CCN(C)CC4)cc(C(F)(F)F)c3)ccc2C)ncn1`, the inhibition in assay [9] is -1.5%; in [10] it was 3.4%; in [11], 0.3%; in assay [12], 6.6%.
